# Measurements: patent publication US20240376099A1, “COMPOUNDS AND COMPOSITIONS AS INHIBITORS OF ENDOSOMAL TOLL-LIKE RECEPTORS” (Novartis AG, priority 2016, published 2024)
# Target: T1, TLR9 (Homo sapiens, UniProt Q9NR96)
# T1 construct: Fresh blood was collected from normal human donors; endogenous in cells; host or cells: human PBMCs from fresh donor blood
# T1 sequence (Q9NR96 26-1032): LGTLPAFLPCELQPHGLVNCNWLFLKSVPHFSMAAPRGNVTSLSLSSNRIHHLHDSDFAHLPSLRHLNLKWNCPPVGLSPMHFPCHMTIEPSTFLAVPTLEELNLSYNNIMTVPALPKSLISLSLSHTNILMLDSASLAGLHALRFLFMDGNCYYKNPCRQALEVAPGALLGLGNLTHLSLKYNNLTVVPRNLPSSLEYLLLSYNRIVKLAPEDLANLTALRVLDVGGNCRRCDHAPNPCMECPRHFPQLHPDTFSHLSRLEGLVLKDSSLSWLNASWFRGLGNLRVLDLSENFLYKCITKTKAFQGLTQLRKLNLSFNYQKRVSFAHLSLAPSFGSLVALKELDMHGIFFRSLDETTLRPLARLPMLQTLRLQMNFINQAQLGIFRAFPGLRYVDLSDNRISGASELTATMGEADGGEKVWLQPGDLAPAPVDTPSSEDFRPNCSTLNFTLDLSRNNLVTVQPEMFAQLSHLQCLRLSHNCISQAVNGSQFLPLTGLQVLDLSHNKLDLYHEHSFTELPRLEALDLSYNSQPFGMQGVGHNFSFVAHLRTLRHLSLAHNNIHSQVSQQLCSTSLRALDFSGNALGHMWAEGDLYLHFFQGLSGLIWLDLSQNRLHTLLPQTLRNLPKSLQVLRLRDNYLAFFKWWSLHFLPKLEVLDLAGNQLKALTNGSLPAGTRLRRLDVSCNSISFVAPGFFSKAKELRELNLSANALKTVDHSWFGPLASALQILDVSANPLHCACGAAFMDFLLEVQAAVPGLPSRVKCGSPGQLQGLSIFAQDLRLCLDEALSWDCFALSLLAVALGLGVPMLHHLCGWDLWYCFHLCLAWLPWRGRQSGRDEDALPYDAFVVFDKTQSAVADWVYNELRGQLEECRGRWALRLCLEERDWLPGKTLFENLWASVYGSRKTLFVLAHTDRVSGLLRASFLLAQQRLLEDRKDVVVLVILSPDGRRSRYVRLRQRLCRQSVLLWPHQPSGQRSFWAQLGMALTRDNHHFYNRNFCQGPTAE
# Assay: huPBMC TLR9 Antagonist IFNα Assay
# Assay type: cell-based
# Conditions: human PBMCs stimulated with ODN2216 0.3 μM, 14-16 hrs; IFNα2b AlphaLISA read-out
# Summary of the method: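 Human PBMCs from fresh donor blood (150,000 cells/well) stimulated 14–16 h at 37 °C with DOTAP-complexed ssRNA40 (final 1 μg/ml for TLR8, 10 μg/mL for TLR7) or ODN2216 (final 0.3 μM, TLR9), 0.25% DMSO, ten-point 1/3 compound dilutions. Supernatant IL-6 read by HTRF (TLR8); IFNα by IFNα2b AlphaLISA (TLR7/TLR9).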
row,IC50 [µM],SMILES
1,> 10,"Cc1nc(N2CCc3c(c(C)nn3CC34CCC(N(C5CCC5)C5CCC5)(CC3)CC4)C2)c2c(n1)c(C)nn2C [compound 28, N,N-dicyclobutyl-4-((3-methyl-5-(1,3,5-trimethyl-1H-pyrazolo[4,3-d]pyrimidin-7-yl)-4,5,6,7-tetrahydro-1H-pyrazolo[4,3-c]pyridin-1-yl)methyl)bicyclo[2.2.2]octan-1-amine]"
2,> 10,"Cc1nc(N2CCc3c(c(C)nn3CC34CCC(N5CCCCC5)(CC3)CC4)C2)c2cn[nH]c2n1 [compound 29, 6-methyl-4-(3-methyl-1-((4-(piperidin-1-yl)bicyclo[2.2.2]octan-1-yl)methyl)-6,7-dihydro-1H-pyrazolo[4,3-c]pyridin-5(4H)-yl)-1H-pyrazolo[3,4-d]pyrimidine]"
3,> 10,"Cc1nc(N2CCc3c(c(C)nn3CC34CCC(N5CCCC5)(CC3)CC4)C2)c2cn[nH]c2n1 [compound 30, 6-methyl-4-(3-methyl-1-((4-(pyrrolidin-1-yl)bicyclo[2.2.2]octan-1-yl)methyl)-6,7-dihydro-1H-pyrazolo[4,3-c]pyridin-5(4H)-yl)-1H-pyrazolo[3,4-d]pyrimidine]"
4,2.34,"Cc1nc(N2CCc3c(c(C)nn3CC34CCC(NCC5(CO)COC5)(CC3)CC4)C2)c2c(n1)c(C)nn2C [compound 31, (3-(((4-((3-methyl-5-(1,3,5-trimethyl-1H-pyrazolo[4,3-d]pyrimidin-7-yl)-4,5,6,7-tetrahydro-1H-pyrazolo[4,3-c]pyridin-1-yl)methyl)bicyclo[2.2.2]octan-1-yl)amino)methyl)oxetan-3-yl)methanol]"
5,> 10,"Cc1nc(N2CCc3c(c(C)nn3CC34CCC(NC(=O)[C@@H]5COCCN5)(CC3)CC4)C2)c2c(n1)c(C)nn2C [compound 33, (S)-N-(4-((3-methyl-5-(1,3,5-trimethyl-1H-pyrazolo[4,3-d]pyrimidin-7-yl)-4,5,6,7-tetrahydro-1H-pyrazolo[4,3-c]pyridin-1-yl)methyl)bicyclo[2.2.2]octan-1-yl)morpholine-3-carboxamide]"
6,5.7,"Cc1nc(N2CCc3c(c(C)nn3CC34CCC(NC(=O)[C@@H]5CNCCO5)(CC3)CC4)C2)c2c(n1)c(C)nn2C [compound 34, (S)-N-(4-((3-methyl-5-(1,3,5-trimethyl-1H-pyrazolo[4,3-d]pyrimidin-7-yl)-4,5,6,7-tetrahydro-1H-pyrazolo[4,3-c]pyridin-1-yl)methyl)bicyclo[2.2.2]octan-1-yl)morpholine-2-carboxamide]"
7,4.97,"Cc1nc(N2CCc3c(c(C)nn3CC34CCC(NC(=O)[C@H]5CNCCO5)(CC3)CC4)C2)c2c(n1)c(C)nn2C [compound 36, (R)-N-(4-((3-methyl-5-(1,3,5-trimethyl-1H-pyrazolo[4,3-d]pyrimidin-7-yl)-4,5,6,7-tetrahydro-1H-pyrazolo[4,3-c]pyridin-1-yl)methyl)bicyclo[2.2.2]octan-1-yl)morpholine-2-carboxamide]"
8,> 10,"Cc1nc(N2CCc3c(c(C)nn3CC34CCC(N5CCOCC5)(CC3)CC4)C2)c2c(C)noc2n1 [compound 37, 3,6-dimethyl-4-(3-methyl-1-((4-morpholinobicyclo[2.2.2]octan-1-yl)methyl)-6,7-dihydro-1H-pyrazolo[4,3-c]pyridin-5(4H)-yl)isoxazolo[5,4-d]pyrimidine]"
9,> 10,"Cc1nc(N2CCc3c(c(C)nn3CC34CCC(N5CCCCC5)(CC3)CC4)C2)c2c(n1)c(C)nn2C [compound 38, 1,3,5-trimethyl-7-(3-methyl-1-((4-(piperidin-1-yl)bicyclo[2.2.2]octan-1-yl)methyl)-6,7-dihydro-1H-pyrazolo[4,3-c]pyridin-5(4H)-yl)-1H-pyrazolo[4,3-d]pyrimidine]"
10,> 10,"Cc1nc(N2CCc3c(c(C)nn3CC34CCC(N5CCCCC5)(CC3)CC4)C2)c2cnn(C)c2n1 [compound 39, 1,6-dimethyl-4-(3-methyl-1-((4-(piperidin-1-yl)bicyclo[2.2.2]octan-1-yl)methyl)-6,7-dihydro-1H-pyrazolo[4,3-c]pyridin-5(4H)-yl)-1H-pyrazolo[3,4-c]pyrimidine]"
11,2.52,"[2H]C([2H])([2H])N(C([2H])([2H])[2H])C12CCC(Cn3nc(C)c4c3CCN(c3nc(C)nc5c(C)nn(C)c35)C4)(CC1)CC2 [compound 40, 4-((3-methyl-5-(1,3,5-trimethyl-1H-pyrazolo[4,3-d]pyrimidin-7-yl)-4,5,6,7-tetrahydro-1H-pyrazolo[4,3-c]pyridin-1-yl)methyl)-N,N-bis(trideuteromethyl)bicyclo[2.2.2]octan-1-amine]"
12,0.817,"Cc1nn(CC23CCC(N)(CC2)CC3)c2c1CN(c1ccnc3[nH]ncc13)CC2 [compound 41, 4-((3-methyl-5-(1H-pyrazolo[3,4-b]pyridin-4-yl)-4,5,6,7-tetrahydro-1H-pyrazolo[4,3-c]pyridin-1-yl)methyl)bicyclo[2.2.2]octan-1-amine]"
13,0.472,"Cc1c2c(nn1CC13CCC(N)(CC1)CC3)CCN(c1ccnc3[nH]ncc13)C2 [compound 42, 4-((3-methyl-5-(1H-pyrazolo[3,4-b]pyridin-4-yl)-4,5,6,7-tetrahydro-2H-pyrazolo[4,3-c]pyridin-2-yl)methyl)bicyclo[2.2.2]octan-1-amine]"
14,1.21,"Cc1cc(N2CCc3c(c(C)nn3CC34CCC(N)(CC3)C4)C2)c2cnn(C)c2n1 [compound 44, 4-((5-(1,6-dimethyl-1H-pyrazolo[3,4-b]pyridin-4-yl)-3-methyl-4,5,6,7-tetrahydro-1H-pyrazolo[4,3-c]pyridin-1-yl)methyl)bicyclo[2.2.1]heptan-1-amine]"
15,2.06,"Cc1cc(N2CCc3c(c(C(F)(F)F)nn3CC34CCC(N)(CC3)CC4)C2)c2cnn(C)c2n1 [compound 45, 4-((5-(1,6-dimethyl-1H-pyrazolo[3,4-b]pyridin-4-yl)-3-(trifluoromethyl)-4,5,6,7-tetrahydro-1H-pyrazolo[4,3-c]pyridin-1-yl)methyl)bicyclo[2.2.2]octan-1-amine]"
16,2.84,"Cc1cc(N2CCc3c(c(C)nn3CC34CCC(NCC(=O)N5CCCCC5)(CC3)CC4)C2)c2cnn(C)c2n1 [compound 99, 2-((4-((5-(1,6-dimethyl-1H-pyrazolo[3,4-b]pyridin-4-yl)-3-methyl-4,5,6,7-tetrahydro-1H-pyrazolo[4,3-c]pyridin-1-yl)methyl)bicyclo[2.2.2]octan-1-yl)amino)-1-(piperidin-1-yl)ethanone]"
17,1.36,"Cc1cc(N2CCc3c(c(C)nn3CC34CCC(NC(=O)CN5CCCC5)(CC3)CC4)C2)c2cnn(C)c2n1 [compound 100, N-(4-((5-(1,6-dimethyl-1H-pyrazolo[3,4-b]pyridin-4-yl)-3-methyl-4,5,6,7-tetrahydro-1H-pyrazolo[4,3-c]pyridin-1-yl)methyl)bicyclo[2.2.2]octan-1-yl)-2-(pyrrolidin-1-yl)acetamide]"
18,1.24,"COCCNC12CCC(Cn3nc(C)c4c3CCN(c3cc(C)nc5c3cnn5C)C4)(CC1)OC2 [compound 102, 1-((5-(1,6-dimethyl-1H-pyrazolo[3,4-b]pyridin-4-yl)-3-methyl-4,5,6,7-tetrahydro-1H-pyrazolo[4,3-c]pyridin-1-yl)methyl)-N-(2-methoxyethyl)-2-oxabicyclo[2.2.2]octan-4-amine]"
19,1.63,"Cc1cc(N2CCc3c(c(C)nn3CC34CCC(NC(=O)CCN(C)C)(CC3)CC4)C2)c2cnn(C)c2n1 [compound 105, N-(4-((5-(1,6-dimethyl-1H-pyrazolo[3,4-b]pyridin-4-yl)-3-methyl-4,5,6,7-tetrahydro-1H-pyrazolo[4,3-c]pyridin-1-yl)methyl)bicyclo[2.2.2]octan-1-yl)-3-(dimethylamino)propanamide]"
20,2.66,"Cc1cc(N2CCc3c(c(C)nn3CC34CCC(NCC(=O)N5CCCC5)(CC3)CC4)C2)c2cnn(C)c2n1 [compound 106, 2-((4-((5-(1,6-dimethyl-1H-pyrazolo[3,4-b]pyridin-4-yl)-3-methyl-4,5,6,7-tetrahydro-1H-pyrazolo[4,3-c]pyridin-1-yl)methyl)bicyclo[2.2.2]octan-1-yl)amino)-1-(pyrrolidin-1-yl)ethanone]"
21,1.71,"Cc1cc(N2CCc3c(c(C)nn3CC34CCC(N5CCO[C@H](C)C5)(CC3)CC4)C2)c2cnn(C)c2n1 [compound 107, (R)-4-(4-((5-(1,6-dimethyl-1H-pyrazolo[3,4-b]pyridin-4-yl)-3-methyl-4,5,6,7-tetrahydro-1H-pyrazolo[4,3-c]pyridin-1-yl)methyl)bicyclo[2.2.2]octan-1-yl)-2-methylmorpholine]"
